Here are results for 3 compounds from patent publication US11478470B2, “Combination product of Bcl-2 inhibitor or Bcl-2/Bcl-xL dual inhibitor and BTK inhibitor and use thereof in the prevention and/or treatment of diseases” (ASCENTAGE PHARMA (SUZHOU) CO., LTD., priority 2018, dated 2022).

One test relates to DOHH2 cells. Put plainly: CellTiter-Glo cell viability assay, DOHH2 cells (Example 11). The note with it: Homo sapiens, DOHH-2, DOHH2 parental cells. Type of test: cell-based. The protocol: (§1) DOHH2 cells were cultured in RPM11640 medium containing 10% calf serum, 1% antibiotics and 5 ug/ml verapamil (calcium ion channel blocker), and ibrutinib was added at a gradually increasing concentration from 0.5 uM to 10 uM. After exposure for about three months, a ibrutinib-resistant DOHH2R cell line was obtained, also referred to as DOHH2^R-ibrutinib. After DOHH2^R-ibrutinib was stabilized, it was continued to be cultured in culture medium containing 10 uM Ibrutinib to maintain its resistance. Ibrutinib is absent only in the susceptibility test with Compound 6 or 88.
(§2) Relative light units (RLU) were determined by a microplate reader (BioTek, Synergy H1 MF, USA). […] IC50 values were calculated using GraphPad Prism. IC50 was expressed as mean±standard deviation (SD).
(Cellular ATP, detected with luciferase, serves as a proxy for viable cell number.)

The subject of the next test is DOHH2^R-ibrutinib cells. Put plainly: CellTiter-Glo cell viability assay, ibrutinib-resistant DOHH2R-ibrutinib cells. Conditions: for IC50: Homo sapiens, ibrutinib-resistant cells, CellTiter-Glo, 24 or 72 hours, read-out: IC50 value to the DOHH2^R-ibrutinib cell line (cell viability). Type of test: cell-based, human. The protocol: as §1, §2
Test [1] relates to human OCI-LY1 (DLBCL) xenograft tumor. Type of test: in vivo. The protocol:
(§3) All animal experiments were strictly in accordance with the laboratory animal use and management practices of GenePharma Co., Ltd. and Ascentage Pharma Group Co., Ltd. The calculation of relevant parameters referred to the Chinese CFDA “Guidelines for Non-Clinical Research Techniques of Cytotoxic Antitumor Drugs”.
(§4) Animal body weight and tumor size were measured twice a week during the experiment. Tumor growth was observed periodically, and the animals were randomly divided into groups according to tumor size and mouse body weight when the tumors grew to an average volume of 100-200 mm^3. The conditions and death of the animals were observed every day. Routine monitoring included the effects of tumor growth and treatment on normal animal behaviors, including activity, feeding and drinking situations, weight gain or loss, eyes, coat and other abnormalities in the experimental animals. The deaths and clinical symptoms observed during the experiment were recorded in the raw data. The entire operations of administration, measurement of mouse body weight and tumor volume were performed in a clean bench. Plasma and tumor tissues were collected, weighed and photographed after the end of the last administration according to the experimental protocol. Plasma and tumor samples were frozen and stored at −80° C.
(§5) Tumor volume (TV) was calculated as: TV=a×b^2/2, in which a and b represented the length and width of the tumor as measured, respectively. The relative tumor volume (RTV) was calculated as: RTV=Vt/V1, in which V1 was the tumor volume at the time of grouping and administration, and Vt was the tumor volume measured on a day after administration. […] Change of body weight %=(measured body weight−body weight at the time of grouping)/body weight at the time of grouping×100%.
(§6) If the synergy factor was >1, there was a synergistic effect; if the synergistic factor=1, there was an additive effect; if the synergistic factor <1, there was an antagonistic effect.
In short, when the average tumor volume reached approximately 90 mm^3, grouping and administration started. Ibrutinib was administered at a dose of 15 mg/kg, i.v., qd, from the day of grouping, for 3 weeks. […] On the 13th day after grouping, the administration was stopped and the observation period started.

The subject of test [2] is human DOHH2 (FL) xenograft tumor. Type of test: in vivo. The note with it: Cpd. 6 100 mg/kg, Ibrutinib 25 mg/kg. The protocol: as §3, §4, §5, §6
Test [3] has the same test system. It counts as in vivo. The note with it: Cpd. 6 50 mg/kg, Ibrutinib 20 mg/kg. The protocol:
(§7) . All animal experiments were strictly in accordance with the laboratory animal use and management practices of GenePharma Co., Ltd. and Ascentage Pharma Group Co., Ltd. The calculation of relevant parameters referred to the Chinese CFDA “Guidelines for Non-Clinical Research Techniques of Cytotoxic Antitumor Drugs”.
as §4
(§8) Tumor volume (TV) was calculated as: TV=a×b^2/2, in which a and b represented the length and width of the tumor as measured, respectively. The relative tumor volume (RTV) was calculated as: RTV=Vt/V1, in which V1 was the tumor volume at the time of grouping and administration, and Vt was the tumor volume measured on a day after administration. The evaluation index of anti-tumor activity was the relative tumor proliferation rate T/C (%), which was calculated as: relative tumor proliferation rate T/C (%)=(TRTV/CRTV)×100%, in which TRTV was the RTV of the treatment group, CRTV was the RTV of the vehicle control group; tumor remission rate (%) was calculated as: (the number of SD (stable disease), PR (tumor partial regression) and CR (tumor complete regression) in the tumor-bearing mice after treatment)/the total number of mice in the group×100%. Change of body weight %=(measured body weight−body weight at the time of grouping)/body weight at the time of grouping×100%.
(§9) ; The synergistic analysis was performed by the following formula: synergy factor=((A/C)×(B/C))/(AB/C); A=RTV value of the group administered with A only; B=RTV value of the group administered with B only; C=RTV value of the vehicle control group; AB=RTV value of the group administered with A and B in combination (Clarke R. Issues in experimental design and endpoint analysis in the study of experimental cytotoxic agents in vivo in breast cancer and other models [J]. Breast Cancer Research & Treatment, 1997, 46(2-3): 255-278). If the synergy factor was >1, there was a synergistic effect; if the synergistic factor=1, there was an additive effect; if the synergistic factor <1, there was an antagonistic effect.

In test [4] the test system is human OCI-LY1 (DLBCL) xenograft tumor. Type of test: in vivo. Conditions: Cpd. 6 50 mg/kg, Ibrutinib 20 mg/kg, day 36. The protocol:
as §7, §4, §8, §9

The test system of another test is DOHH-2 cells. Put plainly: Flow cytometry analysis of apoptosis (Annexin V/PI), DOHH-2. It counts as cell-based, human. Conditions: DOHH-2, 24 hours; 10 nM Compound 6, 100 nM ibrutinib, or the combination. The protocol: (§10) Apoptosis was evaluated with AnnexinV/propidium iodide (PI) dyes (BD Biosciences, Cat. 556547) according to manufacturer's instructions. Briefly, cells were seeded in 24-well plates at a density 2×10^5 cells/well, and treated with Compound 6 and/or ibrutinib (Selleck) to induce apoptosis. After 24 h, cells were collected, washed twice with PBS (pH 7.4), and stained with Annexin-V and propidium iodide (PI) for 15 mins. Stained samples were analyzed using flow cytometer Attune NxT (Life technologies).
(§11) In the experiment, the combination treatment with Compound 6 and ibrutinib was evaluated for its ability of apoptosis induction on DOHH2 and OCI-LY1 cells by co-staining of Annexin-V/Propidium iodide (PI) followed by flow cytometry analysis (FIG. 7A). […] Flow cytometry analysis of apoptotic cells by Annexin V and propidium iodide (PI) co-staining in DOHH-2 and OCI-LY1 cell lines treated with 10 nM (DOHH-2) or 15 nM (OCI-LY1) Compound 6, 100 nM (DOHH-2) or 150 nM (OCI-LY1) ibrutinib, or the combination for 24 hours. Three independent experiments were conducted and the representative results are shown (7A). The percentages of Annexin V-positive, PI-positive, or double positive DOHH-2 (7B) and OCI-LY1 (7C) cells are plotted as bar charts and shown as mean±SEM (n=3) (**p<0.01, ***p<0.001).

For a further test, the system named is OCI-LY1 cells. The test is described as follows: Flow cytometry analysis of apoptosis (Annexin V/PI), OCI-LY1. It counts as cell-based, human. The note with it: OCI-LY1, 24 hours; 15 nM Compound 6, 150 nM ibrutinib, or the combination. The protocol:
as §10, §11
(Flow cytometry measures light scatter and fluorescence of single cells or particles in a stream.)

[5] abbreviates: Cpd. 6 100 mg/kg p.o. qd, Ibrutinib 15 mg/kg i.v. qd, day 43.
[6] abbreviates: Cpd. 6 100 mg/kg, Ibrutinib 15 mg/kg, including CR, PR and SD.
Where [7] appears, read: Cpd. 6 100 mg/kg, Ibrutinib 15 mg/kg, mice per group.

Usually IC50 stands for the midpoint of a concentration-inhibition curve. With `CC1(C)CCC(CN2CCN(c3ccc(C(=O)NS(=O)(=O)c4ccc(NCC5CCOCC5)c([N+](=O)[O-])c4)c(Oc4cnc5[nH]ccc5c4)c3)CC2)=C(c2ccc(Cl)cc2)C1` [ABT-199, reference compound], the IC50 worked out at 51.1 nM with DOHH2 cells and 1190 nM in the test on DOHH2^R-ibrutinib cells.

As to `Cc1c(S(C)(=O)=O)c(-c2cc(F)cc(N3CCN(c4ccc(NS(=O)(=O)c5ccc(N[C@H](CCN6CCC(C(=O)O)CC6)CSc6ccccc6)c(S(=O)(=O)C(F)(F)F)c5)cc4)CC3)c2)c(-c2ccc(Cl)cc2)n1C(C)C` [Compound 88, (R)-1-(3-(4-(N-(4-(4-(3-(2-(4-chlorophenyl)-1-isopropyl-5-methyl-4-(methylsulfonyl)-1H-pyrrol-3-yl)-5-fluorophenyl)piperazin-1-yl)phenyl)-sulfamoyl)-2-(trifluoromethylsulfonyl)phenylamino)-4-(phenylthio)butyl)piperidine-4-carboxylic acid], the “time to cell death” value in the test on DOHH2^R-ibrutinib cells (DOHH2^R-ibrutinib cells) is ≤ 24 h. Besides, the IC50 in the test on DOHH2^R-ibrutinib cells was 17 nM.

`C=CC(=O)N1CCC[C@@H](n2nc(-c3ccc(Oc4ccccc4)cc3)c3c(N)ncnc32)C1` [Ibrutinib, reference compound]: in test [1] (setting [5]), the “RTV on the 43rd day after administration (mean ± standard error)” value was 15.9 ± 7.63 and the “T/C (%) on day 43 after administration” value was determined as 58%. Besides, the “TGI (%) on day 43 after administration” value in test [1] (Cpd. 6 100 mg/kg, Ibrutinib 15 mg/kg, TGI = 100 − T/C%) turned out to be 42%. In test [1] (Cpd. 6 100 mg/kg, Ibrutinib 15 mg/kg, day 50), the “RTV on day 50 after administration (mean ± standard error)” value was 32.1 ± 1137. Further, in test [1] (setting [6]), the “remission rate % on day 43 after administration” value was “PR ( 0% )” and the “remission rate % on day 50 after administration” value is “( 0% )”. Further, in test [1] (setting [7]), the “Tumor status on day 43 after administration: CR (tumor complete regression)” value is on record as 0/5 CR, 0/5; the “Tumor status on day 43 after administration: PR (tumor partial regression)” value is given as 0/5 CR, 0/5; the “Tumor status on day 50 after administration: CR” value was 0/5 CR,; the “Tumor status on day 50 after administration: PR” value is listed as 0/5 PR. Also, in test [2] (TGI = 100 − T/C%), the “TGI (%) on day 32 after administration” value was determined as 52%. Moreover, in test [2] (day 32), the “RTV on day 32 after administration (mean ± standard error)” value is recorded as 6.1 ± 0.8 and the “T/C (%) on day 32 after administration” value was found to be 48%. Moreover, in test [3], the “RTV on day 35 after administration (mean ± standard error)” value amounted to 11.4 ± 1.5 and the “T/C (%) on day 35 after administration” value was found to be 67.7%. The “RTV on day 36 after administration (mean ± standard error)” value in test [4] worked out at 20.5 ± 2.1. The “T/C on day 36 after administration” value in test [4] (given as fraction) is recorded as 0.810. Besides, in the test with DOHH-2 cells, the “apoptosis induction (Annexin V / PI positive cells)” value is reported as “limited apoptosis activity”. In addition, in the test with OCI-LY1 cells, the “apoptosis induction (Annexin V / PI positive cells)” value is “limited apoptosis activity”. The IC50 in the test on DOHH2 cells was determined as 73.5 nM. In the test on DOHH2^R-ibrutinib cells, the “increase of IC50 in DOHH2^R-ibrutinib versus DOHH2 cells” value stood at 160 fold and the IC50 is 12200 nM.
